Broadly, the MIC is the lowest concentration found to suppress growth.

29 compounds from ChEMBL document CHEMBL5634158, “From garden to lab: C-3 chemical modifications of tomatidine unveil broad-spectrum ATP synthase inhibitors to combat bacterial resistance” (Eur J Med Chem, 2023) can be followed below.

Format in all cases: functional
Test [1] has as its system Staphylococcus aureus. The test can be described thus: Antibacterial activity against Staphylococcus aureus ATCC 29213 assessed as reduction in microbial growth incubated for 20 hrs under aerobic condition by CLSI based broth microdilution method. Background: In broth dilution the organism is exposed to a series of concentrations in liquid medium.
For another test, the system named is Escherichia coli. The test can be described thus: Antibacterial activity against Escherichia coli ATCC 25922 assessed as reduction in microbial growth incubated for 20 hrs under aerobic condition by CLSI based broth microdilution method.
The subject of test [2] is Staphylococcus aureus. The test can be described thus: Antibacterial activity against Staphylococcus aureus ATCC 29213 hemB SCV assessed as reduction in microbial growth incubated for 20 hrs under aerobic condition by CLSI based broth microdilution method.

Consider `C[C@H]1CC[C@]2(NC1)O[C@H]1C[C@H]3[C@@H]4CC[C@H]5CC(NC[C@H](N)CCc6ccccc6)CC[C@]5(C)[C@H]4CC[C@]3(C)[C@H]1[C@@H]2C` (stereo partly drawn), for which the figures for the minimum inhibitory concentration (MIC) in the test on Staphylococcus aureus [1] and in the test with Escherichia coli were 4 µg/mL and 32 µg/mL, respectively.
Turning to `C[C@H]1CC[C@]2(NC1)O[C@H]1C[C@H]3[C@@H]4CC[C@H]5CC(NC[C@@H](N)C(c6ccccc6)c6ccccc6)CC[C@]5(C)[C@H]4CC[C@]3(C)[C@H]1[C@@H]2C` (mixture of isomers), the figures for the MIC in the test on Staphylococcus aureus [1] and in the test with Escherichia coli were 4 µg/mL and more than 64 µg/mL, respectively.
On the same counts, the results for `C[C@H]1CC[C@]2(NC1)O[C@H]1C[C@H]3[C@@H]4CC[C@H]5CC(NC[C@@H](N)Cc6ccc([N+](=O)[O-])cc6)CC[C@]5(C)[C@H]4CC[C@]3(C)[C@H]1[C@@H]2C` (mixture of isomers) are 2 µg/mL and 64 µg/mL.
On the same counts, the results for `C[C@H]1CC[C@]2(NC1)O[C@H]1C[C@H]3[C@@H]4CC[C@H]5CC(NCc6ccc(O)cc6)CC[C@]5(C)[C@H]4CC[C@]3(C)[C@H]1[C@@H]2C` (mixture of isomers) are 8 µg/mL and more than 128 µg/mL.
The corresponding values for `C[C@H]1CC[C@]2(NC1)O[C@H]1C[C@H]3[C@@H]4CC[C@H]5CC(NC[C@@H](N)Cc6ccccc6Br)CC[C@]5(C)[C@H]4CC[C@]3(C)[C@H]1[C@@H]2C` (mixture of isomers) are 4 µg/mL and 32 µg/mL.
As to `C[C@H]1CC[C@]2(NC1)O[C@H]1C[C@H]3[C@@H]4CC[C@H]5CC(NC[C@H](N)Cc6ccccc6)CC[C@]5(C)[C@H]4CC[C@]3(C)[C@H]1[C@@H]2C` (mixture of isomers), the MIC was 4 µg/mL in the test on Staphylococcus aureus [1] and 32 µg/mL in the test with Escherichia coli.
On to `C[C@H]1CC[C@]2(NC1)O[C@H]1C[C@H]3[C@@H]4CC[C@H]5CC(NC[C@@H](N)Cc6ccccc6C(F)(F)F)CC[C@]5(C)[C@H]4CC[C@]3(C)[C@H]1[C@@H]2C` (mixture of isomers), for which the MIC in the test on Staphylococcus aureus [2] came out at 0.5 µg/mL; in the test with Staphylococcus aureus [1], 2 µg/mL; with Escherichia coli it was 32 µg/mL.
For the compound `C[C@H]1CC[C@]2(NC1)O[C@H]1C[C@H]3[C@@H]4CC[C@H]5CC(NCc6cn(C)cn6)CC[C@]5(C)[C@H]4CC[C@]3(C)[C@H]1[C@@H]2C` (mixture of isomers), the MIC with Staphylococcus aureus [1] was 32 µg/mL; with Escherichia coli, more than 128 µg/mL.
On the same counts, the results for `COC(=O)CNC1CC[C@@]2(C)[C@@H](CC[C@@H]3[C@@H]2CC[C@]2(C)[C@@H]4[C@H](C[C@@H]32)O[C@@]2(CC[C@H](C)CN2)[C@H]4C)C1` (mixture of isomers) are more than 128 µg/mL and more than 128 µg/mL.
On the same counts, the results for `C[C@H]1CC[C@]2(NC1)O[C@H]1C[C@H]3[C@@H]4CC[C@H]5CC(NCCN6CCNC6=O)CC[C@]5(C)[C@H]4CC[C@]3(C)[C@H]1[C@@H]2C` (mixture of isomers) are 64 µg/mL and more than 128 µg/mL.
In the case of `C[C@H]1CC[C@]2(NC1)O[C@H]1C[C@H]3[C@@H]4CC[C@H]5CC(NCCO)CC[C@]5(C)[C@H]4CC[C@]3(C)[C@H]1[C@@H]2C` (mixture of isomers), the MIC in the test with Staphylococcus aureus [1] and in the test on Escherichia coli was more than 128 µg/mL in each case.
As to `C[C@H]1CC[C@]2(NC1)O[C@H]1C[C@H]3[C@@H]4CC[C@H]5CC(NC[C@@H](C)N)CC[C@]5(C)[C@H]4CC[C@]3(C)[C@H]1[C@@H]2C` (mixture of isomers), the MIC turned out to be 4 µg/mL in the test with Staphylococcus aureus [1] and 64 µg/mL in the test with Escherichia coli.
The corresponding values for `CCCC(N)(CCC)CNC1CC[C@@]2(C)[C@@H](CC[C@@H]3[C@@H]2CC[C@]2(C)[C@@H]4[C@H](C[C@@H]32)O[C@@]2(CC[C@H](C)CN2)[C@H]4C)C1` (mixture of isomers) are 8 µg/mL and more than 128 µg/mL.
Regarding `C[C@H]1CC[C@]2(NC1)O[C@H]1C[C@H]3[C@@H]4CC[C@H]5CC(NC[C@@H](O)CO)CC[C@]5(C)[C@H]4CC[C@]3(C)[C@H]1[C@@H]2C` (mixture of isomers), the MIC in the test on Staphylococcus aureus [1] was 64 µg/mL; in the test with Escherichia coli, more than 128 µg/mL.
The corresponding values for `C[C@H]1CC[C@]2(NC1)O[C@H]1C[C@H]3[C@@H]4CC[C@H]5CC(NC[C@@H](N)Cc6c[nH]cn6)CC[C@]5(C)[C@H]4CC[C@]3(C)[C@H]1[C@@H]2C` (mixture of isomers) are 8 µg/mL and 32 µg/mL.
For `C[C@H]1CC[C@]2(NC1)O[C@H]1C[C@H]3[C@@H]4CC[C@H]5CC(NCc6ccco6)CC[C@]5(C)[C@H]4CC[C@]3(C)[C@H]1[C@@H]2C` (mixture of isomers), the results for the minimal inhibitory concentration (MIC) with Staphylococcus aureus [1] and with Escherichia coli were 32 µg/mL and more than 128 µg/mL, respectively.
Take `C[C@H]1CC[C@]2(NC1)O[C@H]1C[C@H]3[C@@H]4CC[C@H]5CC(NC[C@@H](N)Cc6ccc(Cl)cc6Cl)CC[C@]5(C)[C@H]4CC[C@]3(C)[C@H]1[C@@H]2C` (mixture of isomers): the MIC was not above 0.25 µg/mL in the test on Staphylococcus aureus [2], 2 µg/mL with Staphylococcus aureus [1] and 8 µg/mL in the test with Escherichia coli.
`C[C@H]1CC[C@]2(NC1)O[C@H]1C[C@H]3[C@@H]4CC[C@H]5CC(NCCNC(=N)N)CC[C@]5(C)[C@H]4CC[C@]3(C)[C@H]1[C@@H]2C` (mixture of isomers): the figures for the MIC with Staphylococcus aureus [1] and in the test on Escherichia coli were 8 µg/mL and 64 µg/mL, respectively.
For `C[C@H]1CC[C@]2(NC1)O[C@H]1C[C@H]3[C@@H]4CC[C@H]5CC(NC[C@@H](N)Cc6ccc(F)cc6)CC[C@]5(C)[C@H]4CC[C@]3(C)[C@H]1[C@@H]2C` (mixture of isomers), the MIC in the test with Staphylococcus aureus [2] is not above 0.25 µg/mL; in the test on Staphylococcus aureus [1], 4 µg/mL; in the test with Escherichia coli, 32 µg/mL.
For `C[C@H]1CC[C@]2(NC1)O[C@H]1C[C@H]3[C@@H]4CC[C@H]5CC(NC[C@@H](N)Cc6cn(C)c7ccccc67)CC[C@]5(C)[C@H]4CC[C@]3(C)[C@H]1[C@@H]2C` (mixture of isomers), the MIC was determined as 2 µg/mL with Staphylococcus aureus [1] and 8 µg/mL in the test with Escherichia coli.
For the compound `C[C@H]1CC[C@]2(NC1)O[C@H]1C[C@H]3[C@@H]4CC[C@H]5CC(N[C@H]6CCCC[C@@H]6N)CC[C@]5(C)[C@H]4CC[C@]3(C)[C@H]1[C@@H]2C` (mixture of isomers), the MIC is 8 µg/mL with Staphylococcus aureus [1] and more than 128 µg/mL with Escherichia coli.
Regarding `C[C@H]1CC[C@]2(NC1)O[C@H]1C[C@H]3[C@@H]4CC[C@H]5CC(NC[C@@H](N)Cc6cccc(C(F)(F)F)c6)CC[C@]5(C)[C@H]4CC[C@]3(C)[C@H]1[C@@H]2C` (mixture of isomers), the minimum inhibitory concentration (MIC) in the test on Staphylococcus aureus [2] is 2 µg/mL; in the test with Staphylococcus aureus [1], 5 µg/mL; in the test with Escherichia coli it was 8 µg/mL.
For `C[C@H]1CC[C@]2(NC1)O[C@H]1C[C@H]3[C@@H]4CC[C@H]5CC(NCCNS(C)(=O)=O)CC[C@]5(C)[C@H]4CC[C@]3(C)[C@H]1[C@@H]2C` (mixture of isomers), the MIC is 32 µg/mL in the test on Staphylococcus aureus [1] and more than 128 µg/mL with Escherichia coli.
As to `C[C@H]1CC[C@]2(NC1)O[C@H]1C[C@H]3[C@@H]4CC[C@H]5CC(NC[C@@H](N)Cc6ccc(C(F)(F)F)cc6)CC[C@]5(C)[C@H]4CC[C@]3(C)[C@H]1[C@@H]2C` (mixture of isomers), the minimum inhibitory concentration (MIC) in the test on Staphylococcus aureus [2] is 1 µg/mL; in the test on Staphylococcus aureus [1] it was 2 µg/mL; in the test on Escherichia coli it was 8 µg/mL.
For `C[C@H]1CC[C@]2(NC1)O[C@H]1C[C@H]3[C@@H]4CC[C@H]5CC(NC[C@@H](N)Cc6cccnc6)CC[C@]5(C)[C@H]4CC[C@]3(C)[C@H]1[C@@H]2C` (mixture of isomers), the MIC in the test with Staphylococcus aureus [1] was 16 µg/mL; in the test with Escherichia coli, more than 128 µg/mL.
The corresponding values for `C[C@H]1CC[C@]2(NC1)O[C@H]1C[C@H]3[C@@H]4CC[C@H]5CC(NC[C@@H](N)Cc6cccc(Br)c6)CC[C@]5(C)[C@H]4CC[C@]3(C)[C@H]1[C@@H]2C` (mixture of isomers) are 2 µg/mL and 8 µg/mL.
On the same counts, the results for `C[C@H]1CC[C@]2(NC1)O[C@H]1C[C@H]3[C@@H]4CC[C@H]5CC(NCc6ccccn6)CC[C@]5(C)[C@H]4CC[C@]3(C)[C@H]1[C@@H]2C` (mixture of isomers) are more than 128 µg/mL and more than 128 µg/mL.
The corresponding values for `C[C@H]1CC[C@]2(NC1)O[C@H]1C[C@H]3[C@@H]4CC[C@H]5CC(NC[C@@H](N)CC6CCCCC6)CC[C@]5(C)[C@H]4CC[C@]3(C)[C@H]1[C@@H]2C` (mixture of isomers) are 4 µg/mL and 16 µg/mL.
For `C[C@H]1CC[C@]2(NC1)O[C@H]1C[C@H]3[C@@H]4CC[C@H]5CC(NCCN(C)C)CC[C@]5(C)[C@H]4CC[C@]3(C)[C@H]1[C@@H]2C` (mixture of isomers), the figures for the MIC in the test on Staphylococcus aureus [1] and with Escherichia coli were 8 µg/mL and 128 µg/mL, respectively.
